Experimental data: patent publication US10413535B2, “Pharmaceutical compositions comprising an integrin ALPHA4 antagonist for use in treating ocular inflammatory conditions” (AXEROVISION, INC., priority 2015, dated 2019)

What was measured:
[1] = system: IL-1α, MMP-9, CXCL9, TGF-β1 expression; experiment: Inflammatory marker gene expression in cornea and conjunctiva (real time PCR), desiccating stress model; assay type: in vivo, mouse; conditions: topical 30 mg/mL, 5 days DS, vs vehicle
Description: Female C57BL/6 mice, aged 6 to 8 weeks, were subjected to DS for 5 days (DS5) as described previously (de Paiva et al., 2006b; Niederkorn et al., 2006). Topical bilateral treatment with 1 eye drop per eye (2 μL volume) or subcutaneous injection (4 μL volume), 2 times per day, was initiated on day 1 concurrently with DS and continued through day 4. Treatment with the compound of formula I or dexamethasone phosphate 0.1% was compared to correspondingly treated vehicle controls. Mice were randomized to receive one of the test articles. Control mice were kept in a non-stressed (NS) environment maintained at 50-75% relative humidity without exposure to airflow or scopolamine and were not treated with test or control article. Treatment effects were assessed on corneal staining with Oregon Green Dextran (OGD); expression of inflammatory markers in ocular surface tissues by real time PCR; cell population analysis in draining cervical lymph nodes by FACS analysis; conjunctival T cell infiltration by immunohistochemistry.
Total RNA was isolated from corneal and conjunctival epithelia that was collected and pooled from 2 eyes (right and left) at each time point from untreated control mice, mice subjected to DS for 5 days (DS5), DS5 mice topically treated with the compound of formula I ([…]) and vehicle treated animals (n=7/group) using a PicoPure™ RNA Isolation Kit (Acturus Bioscience Inc, Mountain View, Calif., USA) following the manufacturer's protocol. Briefly, corneal epithelial cells were scraped and whole conjunctiva was cut and placed in 100 μL of extraction buffer and incubated at 42° C. for 30 minutes. The cell extract was loaded onto a preconditioned purified column, which was centrifuged, treated with DNase (Qiagen, Valencia, Calif., USA) and washed twice with two different wash buffers. The RNA was eluded in 12 μL of low ionic strength buffer. The RNA concentration was measured by absorption at 260 nm using a spectrophotometer (NanoDrop 2000, Thermo Scientific, Wilmington, Del., USA) and samples were stored at −80° C. until use. First-strand cDNA was synthesized from 1 μg of total RNA with random hexamers using M-MuLV reverse transcriptase (Ready-To-Go You-Prime First-Strand Beads; Amersham Pharmacia Biotech, Inc., Piscataway, N.J.) as previously described (de Paiva et al., 2006a).
A cDNA aliquot (1-4 μL) from samples was used for real time PCR in a total volume of 10 μL containing the following per reaction: 0.3 μL of gene specific Taqman probes used and 5 μL of 2× Taqman Fast PCR Master Mix, (Applied Biosystems). Real time PCR was performed on a StepOnePlus™ Real-Time PCR System (Applied Biosystems) and the parameters consisted of pre-denaturation at 95° C. for 22 sec, followed by 40 cycles of denaturation at 95° C. for 1 sec, annealing and extension at 60° C. for 20 sec. Samples and standards were assayed in duplicate. A non-template control and total RNA without retrotranscription were included in all the experiments to evaluate PCR and DNA contamination of the reagents used. The following mouse Taqman probes were used: IL-1α (Mm00439620); MMP-9 (Mm00442991); CXCL9 (Mm004434946); TGF-β1 (Mm00441724) and HPRT-1 (Mm00446968). The HPRT-1 gene was used as an endogenous reference for each reaction. The results of quantitative PCR were analyzed by the comparative CT method where target change=2-ΔΔ CT. The results were normalized by the CT value of HPRT-1 of the untreated control group (de Paiva et al., 2006b).
Due to skewed distribution of OGD data, the analysis was done on the log 10 scale to make the data more normally distributed. Log 10 OGD data was averaged across two observers and the left and right eyes. The mixed effects ANOVA model included treatment group as a fixed effect and week as a random effect. 95% and 99% confidence intervals were constructed for the disease (5 day DS vs untreated group kept in separate vivarium) and compound treatment effects (treatment vs vehicle). […]

Beagle Dogs = experiment: 13-week topical ocular toxicity study in Beagle dogs; assay type: in vivo, dog
Description: GW559090A was given to Beagle Dogs by topical ocular administration for 13 weeks. Animals were dosed six or twelve times per day, with one hour between doses. Treatment groups were: (1) vehicle (12 times a day), (2) 30 mg/mL/occasion given six times a day, (3) 50 mg/mL/occasion given six times a day, or (4) 50 mg/mL/occasion, given 12 times a day.
GW559090A was formulated as a stock solution in 25 mM phosphate buffer with 0.5% sodium chloride to provide a 50 mg/mL stock solution, which was used for administration to Groups 3 or 4, or further diluted with 25 mM phosphate buffer with 0.75% sodium chloride to provide a 30 mg/mL solution for administration to Group 2.
During the 13 week treatment period dogs received daily topical ocular doses of GW559090 or vehicle (12 times a day) at a constant dose volume of 0.06 mL (given 6 or 12 times a day, with one hour between doses). The test article formulation or vehicle was carefully dropped into the everted lower eyelid of the left eye from a suitable distance, to prevent contact of the positive displacement pipette with the eye. The lower and upper lids were then gently held together for approximately five seconds, to prevent loss of dose and aid even distribution across the external ocular surface. The un-dosed eye was not manipulated at any time and served as a within animal untreated control site.

[2] = system: 53 receptors and 4 transporters; experiment: MDS Pharma screen, radioligand binding assays; conditions: at 10 μM
[3] = topical ocular 13 weeks, 30 or 50 mg/mL/occasion six times daily or 50 mg/mL/occasion 12 times daily

## Cc1ccccc1OCC(=O)N[C@@H](CC(C)C)C(=O)N[C@@H](Cc1ccc(OC(=O)N2CCC(C(N)=O)CC2)cc1)C(=O)O [GW559090, (2S)-3-[4-({[4-(Aminocarbonyl)-1-piperidinyl]carbonyl}oxy)phenyl]-2-[((2S)-4-methyl-2-{[2-(2-methylphenoxy)acetyl]amino}pentanoyl)amino]propanoic acid]
[1]
  CXCL9 transcripts in cornea: significant decrease
  CXCL-9 expression in conjunctiva: no change
  IL-1α expression in conjunctiva: no change
  IL-1α transcripts in cornea: significant decrease
  MMP-9 expression in conjunctiva: no change
  MMP-9 transcripts in cornea: significant decrease
  TGF-β1 expression in conjunctiva: significant reduction
  TGF-β1 transcripts in cornea: significant decrease
Beagle Dogs; given 12 times a day, 13 weeks
  No-Observed-Adverse-Effect level (NOAEL): 50 mg/mL/occasion
Beagle Dogs; [3]
  Ocular change or systemic toxicity: no ocular change or systemic toxicity
  Tolerability: well-tolerated
[2]
  Inhibition in radioligand binding assays: No significant inhibition
